The values that follow come from paper PMC6695191 (PLoS Neglected Tropical Diseases, 2019).

Data set [1] is described as follows: Selectivity assay on THP-1 macrophages (Alamar Blue). The format is cell-based. The note with it: human. On the procedure:
Leishmania donovani axenic cultures (strain MHOM/ET/67/HU3) were maintained in M199 medium (pH 7.4) supplemented with 10% heat-inactivated fetal calf serum (FCS) and grown at 28°C [22].
After incubation for 72 hours (5% CO2, 37°C), medium was aspirated, compounds were added in serial dilutions (100 μL) and the plates were incubated for 120 h. All plates included negative controls and doxorubicin as a positive control. Following incubation, 10 μL of Alamar Blue was added to each well and then the plates were incubated for 3 hours. […] Growth inhibition was expressed as a percentage of the fluorescence of the negative control wells. IC50 values were determined as described above for the promastigote and amastigote assays.
(The colour change of resazurin is a common sign of viable cells or microbes.)

Data set [2] relates to L. donovani intracellular amastigotes. The data set is described as follows: L. donovani intracellular amastigote assay in PMA-differentiated THP-1 macrophages (Giemsa counting). To be noted: for Selectivity Index: CC50 THP-1/IC50 intracellular amastigotes; for IC50: L. donovani in THP-1 macrophages, 120 h incubation, mean ± SD, n = 2 biological replicates. Type of data set: cell-based, Leishmania donovani. On the procedure:
(§1) Leishmania donovani axenic cultures (strain MHOM/ET/67/HU3) were maintained in M199 medium (pH 7.4) supplemented with 10% heat-inactivated fetal calf serum (FCS) and grown at 28°C [22]. Human leukemia cells (THP-1 cell line) were maintained in RPMI-1640 (FCS 10%) and grown at 37°C and 5% CO2. Stock solutions of compounds 1–4 were prepared in 100% DMSO at 10 mM and tested in 2-fold serial dilutions (10 concentrations) in 96-well flat-bottom microtiter plates.
In the intracellular amastigote assay, THP-1 cells were seeded at 2 × 10^4/well (RPMI-1640, 100 μL) with phorbol 12-myristate 13-acetate (PMA) at 20 ng/mL for differentiation into macrophages. After incubation for 72 hours (5% CO2, 37°C), medium was aspirated and late-stage promastigotes were added (2 × 10^5/well, 100 μL). After 24 hours of incubation, medium was aspirated to clear extracellular parasites, compounds were added in serial dilutions (100 μL) and the plates were incubated for 120 hours. All plates included negative controls (100% parasite growth) and miltefosine as a positive control. Following incubation, medium was removed and the cells were fixed in methanol and stained with Giemsa. The average number of intracellular amastigotes per THP-1 cell was determined using an inverted microscope and a cell counter. Growth inhibition was expressed as a percentage of the average number of amastigotes per macrophage in the negative control wells. IC50 values were determined as described above for the promastigote assay.

Data set [3] relates to L. donovani promastigotes. The data set is described as follows: L. donovani promastigote assay (Alamar Blue). Type of data set: cell-based, Leishmania donovani. The note with it: 72 h incubation at 28°C, mean ± SD, n = 2 biological replicates. On the procedure:
as §1
For the promastigote assay, L. donovani cells from axenic cultures in logarithmic growth were seeded at 1 x 10^5/well (M199, 80 μL) and compounds were added in serial dilutions (20 μL). All plates included negative controls (100% parasite growth) and miltefosine as a positive control. After 72 hours of incubation at 28°C, 10 μL of Alamar Blue (12.5 mg resazurin/100 mL distilled water) was added to each well and then the plates were incubated for 3 hours. This indicator of cell viability permeates into viable parasites, where it is reduced by NADPH and NADH enzymes to the highly fluorescent compound resorufin [24]. Following incubation, the plates were read with a microplate fluorometer under an excitation wave length of 536 nm and an emission wave length of 588 nm. […] If the test compound is active against L. donovani, the number of viable parasites is reduced, thus resulting a decrease in fluorescence. Growth inhibition was expressed as a percentage of the fluorescence of the negative control wells. IC50 values were determined using SigmaPlot. Dose-response curves were fitted using log (inhibitor concentration) vs. normalized response (between 0% and 100%) with variable slope, and IC50 values were automatically calculated.

For another data set, the system named is Trichoderma sp. ICBG1100. As to the kind of experiment: Antagonist bioassay of compounds against Trichoderma on ISP-2 agar. The format is cell-based. The note with it: 100 μg compound, 21 days of growth at 28°C. On the procedure:
(§2) Each bacterium-fungus and compound-fungal challenge was replicated two times on ISP-2 agar. Bacteria strains were initially screened against Escovopsis sp. ICBG1251. Bacteria were placed in the center of ISP-2 agar Petri dishes and grown alone during 7 days; fungal strains were then point-inoculated near the edge of the culture (microbial strains distant from each other around 3 cm). Two microliters of compounds (100 μg) were placed in the center of Petri dishes and fungal strains were then point-inoculated near the edge of the plate. The positive control used was the miconazole. Challenges were monitored each 7 days and inhibition zone was measure after 21 days. Four different fungal strains were used for testing the pure compounds: Escovopsis sp. ICBG711 (from Trachymyrmex colony), Escovopsis sp. ICBG740 (from Acromyrmex colony), Escovopsis sp. ICBG1251 (from Atta colony) and Trichoderma sp. ICBG1100 (from attine colony).

A further data set relates to Escovopsis sp. The data set is described as follows: Antagonist bioassay of compounds and fractions against Escovopsis on ISP-2 agar. To be noted: 100 μg compound, 21 days. The format is cell-based. On the procedure: as §2
The mark [4] stands for this setting: THP-1 macrophages, 120 h incubation, mean ± SD, n = 2 biological replicates, read-out: CC50 THP-1.

Like-named read-outs stand apart in the source and are kept apart here. Some results are limits rather than exact numbers.

As a reminder, the CC50 is the concentration giving 50% cytotoxicity. As usually defined, the IC50 is the concentration at which inhibition is half-maximal. Regarding `CC[C@@H]1C[C@H]2CC[C@H](O2)[C@H](C)C(=O)O[C@@H](C)C[C@@H]2CC[C@@H](O2)[C@@H](C)C(=O)O[C@H](CC)C[C@H]2CC[C@H](O2)[C@H](C)C(=O)O[C@@H](C)C[C@@H]2CC[C@@H](O2)[C@@H](C)C(=O)O1` [Compound 4, dinactin], in data set [1] (setting [4]), the half-maximal cytotoxic concentration (CC50) at 120 h stood at 11.8 ± 1.57 µM. Besides, the “Selectivity Index” value in data set [2] is given as 656.11. Also, the IC50 in data set [2] (Leishmania donovani) was 0.018 ± 0.003 µM; in data set [3] (Leishmania donovani), 0.032 ± 0.005 µM.
With `CO[C@@H]1C[C@@H](C[C@H]2CC[C@H](C)[C@H]([C@@H](C)C(=O)O)O2)O[C@]2(O[C@](C)([C@H]3CC[C@@](C)([C@@H]4O[C@@H]([C@H]5O[C@@](O)(CO)[C@H](C)C[C@@H]5C)C[C@@H]4C)O3)C[C@H]2C)[C@@H]1C` [Compound 3, nigericin], in data set [1], the CC50 at 120 h came out at 11.5 ± 0.68 µM. Moreover, the “Selectivity Index” value in data set [2] is 88.91. For the same compound, the IC50 in data set [2] (Leishmania donovani) is 0.129 ± 0.008 µM; in data set [3] (Leishmania donovani) it was 0.284 ± 0.072 µM.
Take `CCCCCCCCCCCCCCCCOP(=O)([O-])OCC[N+](C)(C)C` [Miltefosine, reference compound]: the IC50 turned out to be 5.8 ± 0.59 µM in data set [2] (Leishmania donovani) and 4.74 ± 0.25 µM in data set [3] (Leishmania donovani).
As to `C/C=C(\C)[C@H](O)[C@H](C)/C=C(C)/C=C/C/C(C)=C/Cc1nc(OC)c(OC)c(O)c1C` [Compound 2, piericidin-A1], the CC50 at 120 h in data set [1] (setting [4]) was more than 64 µM. The results for the IC50 in data set [2] (Leishmania donovani) and in data set [3] (Leishmania donovani) were more than 64 µM and 38.4 ± 4.63 µM, respectively.
With `COc1cccc2c1C(=O)c1c(O)c3c(c(O)c1C2=O)C[C@@](O)(C(=O)CO)C[C@@H]3O[C@H]1C[C@H](N)[C@H](O)[C@H](C)O1` [Doxorubicin, reference compound], in data set [1] (THP-1 cells differentiated into macrophages with PMA, THP-1 macrophages, 120 h incubation, mean ± SD, n = 2 biological replicates, read-out: CC50 THP-1), the CC50 at 120 h worked out at 0.571 ± 0.068 µM.
Consider `C/C=C(\C)[C@H](O)[C@H](C)/C=C(C)/C=C/C/C(C)=C/Cc1nc(OC)cc(O)c1C` [Compound 1, Mer-A2026B], for which the “Activity against Trichoderma sp.” value with Trichoderma sp. ICBG1100 is “active”. Besides, the IC50 in data set [2] was 49.9 ± 7.01 µM; in data set [3], 35.9 ± 1.83 µM. Further, the “Antagonist activity against four different Escovopsis strains compared to compounds 2–4” value in the data set with Escovopsis sp. was “higher antagonist activity”.
